The nature of series [1]: Oral bioavailability of Hydrocodone vs. Galactose-Hydrocodone.
A short description of series [2]: Intranasal bioavailability of Hydrocodone vs. Galactose Hydrocodone.
Series [3] is described as follows: Kitchen test stability of conjugate (release of hydrocodone on heating in pH solutions). The series is classed as physicochemical. Conditions: for Percent Hydrocodone released: 80-90° C. How it is done:
To determine the accessibility of active narcotic from the synthetic conjugates, an attempt was made to release the narcotic from its conjugate. In a kitchen test, we determined the stability of the conjugates when subjected to conditions that would be available to any drug addict. Thus, the kitchen test is a model of “street-safeness” for the narcotics conjugates. The conjugates were heated in a water bath (80-90° C.) in a pH range (1-12) over a 1 hour time course. This pH range constitutes about any solution that can be found commercially at any grocery or drug store. The release of the narcotic from the conjugate was monitored by HPLC and quantified with a dose-response calibration curve of the parent narcotic.
Using only solutions that would be available to an addict, conjugates were dissolved in water. Water insoluble conjugates were either (a) dissolved in a minimum amount (≦5% v/v) of organic solvent [e.g., DMSO, methanol, or ethanol], (b) added as a suspension to the assay, or (c) dissolved completely in chloroform, and aliquoted to a test tube where the chloroform is evaporated, leaving only a known amount of conjugate. Upon preparation of the conjugate, the conjugate is added to the various pH solutions and heated for 0, 5, 15, or 60 minutes. At the indicated time point, each test tube was removed from the water bath and neutralized with a chilled phosphate buffer (100 mM, pH 7, 4° C.).
The kitchen test proceeds as follows: • 1. pH solutions [1, 4, 7, 9, 12] prepared with HPLC grade H2O and titrated with NaOH or HCl • 2. prepare hot water bath, keeping temperature at 80-90° C. • 3. conjugates prepared at a concentration of 1 mg/ml as indicated above • 4. 250 μl of conjugate added to 750 μl of pH solutions (final assay volume is 1 ml; if conjugate has been evaporated from CHCl3, add 1 ml of pH solution to test tube) • 5. immediately following the addition of conjugate to pH solution, place test tube in hot water bath (80-90° C.) • 6. at indicated time point, remove test tubes from heat and neutralize with 1 ml of chilled phosphate buffer [0 time point is not heated, but immediately neutralized with phosphate buffer after the addition of conjugate to each pH solution] • 7. before aliquoting each sample for HPLC analysis, the volume of each tube is adjusted to 2 ml to account for changes in concentration from evaporation
Following HPLC analysis, the amount of released narcotic was extrapolated from a calibration curve of the parent drug and plotted as % narcotic released (w/w, based upon theoretical loading of conjugated species) vs. time.

Series [4] is described as follows: Intranasal bioavailability of Hydrocodone vs. Ribose Hydrocodone.
Series [5] can be described thus: Intravenous bioavailability of Hydrocodone vs. Ribose Hydrocodone.
A short description of series [6]: Oral bioavailability of Hydrocodone vs. Ribose-Hydrocodone (serum levels).

In the case of `COc1ccc2c3c1OC1C(OC(=O)OC[C@H]4O[C@H](O)[C@H](O)[C@@H](O)[C@H]4O)=CCC4[C@@H](C2)[N@@H+](C)CC[C@]314.[Cl-]` (some centres unmarked) [Galactose-Hydrocodone, Galacto-Hydrocodone], the “Bioavailability compared to Hydrocodone-Bitartarate” value is listed as “approached that of Hydrocodone-Bitaratarate” in series [1] and “marginally decreased” in series [2].
In the case of `COc1ccc2c3c1OC1C(OC(=O)OC[C@H]4OC(O)C(O)[C@H]4O)=CCC4[C@@H](C2)[N@@H+](C)CC[C@]314.[Cl-]` (some centres unmarked) [Ribose-Hydrocodone, Ribo-Hydrocodone], the “Percent Hydrocodone released” value was found to be 8% in series [3] (pH 1, 5 minutes, relative to zero hour level of free Hydrocodone); 18% in series [3] (pH 1, 15 minutes, relative to zero hour level); 27.8% in series [3] (pH 1, 60 minutes, relative to zero hour level); 11% in series [3] (pH 4, 5 minutes, relative to zero hour level); 12.6% in series [3] (pH 4, 15 minutes, relative to zero hour level); 19.6% in series [3] (pH 4, 60 minutes, relative to zero hour level). In addition, the “Percent Hydrocodone released” value in series [3] (pH 7, 5 minutes, relative to zero hour level) was 12%; in series [3] (pH 7, 15 minutes, relative to zero hour level), 16%; in series [3] (pH 7, 60 minutes, relative to zero hour level) it was 23.4%; in series [3] (pH 9, 5 minutes, relative to zero hour level), 9%; in series [3] (pH 9, 15 minutes, relative to zero hour level), 11%; in series [3] (pH 9, 60 minutes, relative to zero hour level), 21%. For the same compound, the “Percent Hydrocodone released” value in series [3] (pH 12, 5 minutes, relative to zero hour level) was determined as 44%; in series [3] (pH 12, 15 minutes, relative to zero hour level) it was 33%; in series [3] (pH 12, 60 minutes, relative to zero hour level), 41.1%. The “hydrocodone released from the conjugate” value in series [3] (pH 12) was “less than half”. Also, the “amount of hydrocodone released” value in series [3] (pHs other than pH 12, after one hour at 90° C.) was at most 27.8%. Besides, the “Bioavailability compared to Hydrocodone-Bitartarate” value is “decreased” in series [4], “decreased” in series [5] and “approximately equal” in series [6]. The “clearance rate” value in series [5] was “increased clearance rate”.

These data come from US8133881B2, “Carbohydrate conjugates to prevent abuse of controlled substances” (Shire LLC, priority 2003, dated 2012).
